According to ChEMBL document CHEMBL5126623, “Dual Targeting of Steroid Sulfatase and 17β-Hydroxysteroid Dehydrogenase Type 1 by a Novel Drug-Prodrug Approach: A Potential Therapeutic Option for the Treatment of Endometriosis” (J Med Chem, 2022):

What was measured:
[1] = molecular target: T1, 17-beta-hydroxysteroid dehydrogenase type 2 (Homo sapiens, UniProt P37059); assay: Inhibition of human placental microsomal fraction 17beta-HS2 using [3H]-E2 as substrate in presence of NAD+ measured after 10 mins by HPLC method; assay type: subcellular, Placenta, Microsome
T1 sequence (P37059 whole entry): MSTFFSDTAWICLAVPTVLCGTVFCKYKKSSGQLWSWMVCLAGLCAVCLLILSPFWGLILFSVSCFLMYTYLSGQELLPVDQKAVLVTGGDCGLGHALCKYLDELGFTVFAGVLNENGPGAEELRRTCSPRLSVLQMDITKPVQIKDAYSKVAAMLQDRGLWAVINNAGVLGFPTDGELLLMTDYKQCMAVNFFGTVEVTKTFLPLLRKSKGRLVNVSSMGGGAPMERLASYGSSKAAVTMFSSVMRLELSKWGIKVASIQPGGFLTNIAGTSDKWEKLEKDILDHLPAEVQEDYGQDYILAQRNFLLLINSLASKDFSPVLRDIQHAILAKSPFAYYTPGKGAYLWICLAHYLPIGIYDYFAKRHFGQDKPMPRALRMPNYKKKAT

[2] = molecular target: T2, 17-beta-hydroxysteroid dehydrogenase type 1 (Homo sapiens, UniProt P14061); assay: Inhibition of 17beta-HSD1 in human T47D cells using [3H]E1S as substrate measured after 24 hrs by HPLC analysis; assay type: cell-based
T2 sequence (P14061 whole entry): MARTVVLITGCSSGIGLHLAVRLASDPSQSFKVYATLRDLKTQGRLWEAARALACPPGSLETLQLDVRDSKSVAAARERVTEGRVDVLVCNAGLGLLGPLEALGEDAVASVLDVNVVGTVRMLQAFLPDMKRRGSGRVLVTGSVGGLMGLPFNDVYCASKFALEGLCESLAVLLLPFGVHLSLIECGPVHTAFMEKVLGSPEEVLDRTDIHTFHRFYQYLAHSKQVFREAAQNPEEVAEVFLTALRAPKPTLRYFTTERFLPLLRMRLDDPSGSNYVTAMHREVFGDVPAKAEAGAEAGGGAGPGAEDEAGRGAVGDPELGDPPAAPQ

[3] = molecular target: T2, 17-beta-hydroxysteroid dehydrogenase type 1; assay: Inhibition of human placental cytosolic fraction 17beta-HSD1 using [3H]-E1 as substrate in presence of NADH measured after 10 mins by HPLC method; assay type: subcellular, Placenta, Cytosol
[4] = species on record: Homo sapiens; assay: Selectivity ratio of IC50 for human placental microsomal fraction 17beta-HSD2 to IC50 for human placental cytosolic fraction 17beta-HSD1
[5] = Metabolic stability in human liver S9 fraction assessed as half life at 1 uM in presence of NADPH measured upto 60 min by LC-MS/MS analysis; assay type: ADME, subcellular
[6] = Cytotoxicity against human HEK293 cells assessed as cell growth inhibition at 20 uM measured at 48 hrs bt MTT assay relative to control; assay type: toxicity, cell-based
[7] = molecular target: T3, Steryl-sulfatase (Homo sapiens, UniProt P08842); assay: Inhibition of STS in human T47D cells using [3H]E1S as substrate measured after 24 hrs by HPLC analysis; assay type: cell-based
T3 sequence (P08842 whole entry): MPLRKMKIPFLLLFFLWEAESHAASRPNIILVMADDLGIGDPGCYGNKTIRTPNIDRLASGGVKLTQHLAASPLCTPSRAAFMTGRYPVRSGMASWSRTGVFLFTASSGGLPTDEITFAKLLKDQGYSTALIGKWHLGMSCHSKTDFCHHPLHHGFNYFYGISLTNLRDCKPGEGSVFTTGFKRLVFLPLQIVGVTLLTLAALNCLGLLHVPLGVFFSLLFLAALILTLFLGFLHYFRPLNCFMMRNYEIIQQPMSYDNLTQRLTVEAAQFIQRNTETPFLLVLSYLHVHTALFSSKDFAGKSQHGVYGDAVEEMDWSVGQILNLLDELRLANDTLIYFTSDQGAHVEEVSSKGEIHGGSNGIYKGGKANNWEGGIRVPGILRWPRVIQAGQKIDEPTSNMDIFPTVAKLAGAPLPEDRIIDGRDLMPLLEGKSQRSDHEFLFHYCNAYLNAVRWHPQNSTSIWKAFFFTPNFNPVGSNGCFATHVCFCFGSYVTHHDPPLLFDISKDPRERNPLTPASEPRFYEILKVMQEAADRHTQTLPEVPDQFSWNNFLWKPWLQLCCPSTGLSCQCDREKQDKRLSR

[8] = Stability of compound in phosphate buffer measured after 24 hrs by LC-MS/MS analysis; assay type: physicochemical; conditions: read-out: Stability
[9] = Metabolic stability in human liver S9 fraction assessed as intrinsic clearance at 1 uM in presence of NADPH measured upto 60 min by LC-MS/MS analysis; assay type: ADME, subcellular; conditions: s9, 1 h
[10] = molecular target: T3, Steryl-sulfatase; assay: Irreversible inhibition of STS in human T47D cells using [3H]E1S as substrate measured after 24 hrs by HPLC analysis; assay type: cell-based
[11] = Stability in human T47D cells cultured in DMEM medium measured after 24 hrs by LC-MS/MS analysis; assay type: ADME, cell-based; conditions: read-out: Stability
[12] = Metabolic stability in mouse liver S9 fraction assessed as intrinsic clearance at 1 uM in presence of NADPH measured upto 60 min by LC-MS/MS analysis; assay type: ADME, subcellular; conditions: s9, 1 h
[13] = Metabolic stability in mouse liver S9 fraction assessed as half life at 1 uM in presence of NADPH measured upto 60 min by LC-MS/MS analysis; assay type: ADME, subcellular
[14] = molecular target: T4, 17-beta-hydroxysteroid dehydrogenase type 1 (Homo sapiens) (UniProt P14061); conditions: dose 50.0 nM, time 6.5 hrs
T4 sequence (whole entry): T2 sequence (P14061 whole entry)
Description: Inhibition of human placental cytosolic fraction 17beta-HSD1 at 50 nM using [3H]-E1 as substrate in presence of NADH measured after 6.5 hrs by LC-MS/MS method

[15] = molecular target: T4, 17-beta-hydroxysteroid dehydrogenase type 1 (Homo sapiens); conditions: dose 50.0 nM, time 24.0 hrs
[16] = molecular target: T4, 17-beta-hydroxysteroid dehydrogenase type 1 (Homo sapiens); assay: Inhibition of human 17beta-HSD1 at 50 nM using [3H]-E1 as substrate measured after 13.5 hrs in presence of NADH by LC-MS/MS analysis

SMILES	IC50 [1]	IC50 [2]	IC50 [3]	Ratio IC50 [4]	IC50 [7]	further results
Cc1ccccc1N(C)C(=O)c1nnc(-c2ccc(O)cc2)o1	6.2 µM	320 nM	490 nM	13		
Cc1ccccc1N(C)C(=O)c1csc(-c2ccc(O)cc2)n1	3.9 µM	12 nM	34 nM	115		
Cc1ccccc1N(C)C(=O)c1cnc(-c2ccc(O)cc2)s1	4.5 µM	340 nM	600 nM	7.5		
Cc1ccccc1N(C)C(=O)c1ccc(-c2ccc(OS(N)(=O)=O)cc2)o1					28 nM	half-life at 1 µM [5]: 47 min; inhibition at 48 h, 20 µM [6]: 11.7%; remaining at 24 h [8]: 40%; intrinsic clearance [9]: 15 µL/min/mg; IC50 [10]: 31 nM; remaining at 24 h [11]: 94%; intrinsic clearance [12]: 31 µL/min/mg; half-life at 1 µM [13]: 25 min; inhibition [14]: 50%
Cc1c(F)cccc1N(C)C(=O)c1ccc(-c2ccc(OS(N)(=O)=O)cc2)o1					27 nM	half-life at 1 µM [5]: 21 min; intrinsic clearance [9]: 29 µL/min/mg; IC50 [10]: 25 nM; intrinsic clearance [12]: 150 µL/min/mg; half-life at 1 µM [13]: 4.8 min
Cc1cccc(F)c1N(C)C(=O)c1ccc(-c2ccc(OS(N)(=O)=O)cc2)o1					150 nM	
Cc1ccccc1N(C)C(=O)c1cnc(-c2ccc(OS(N)(=O)=O)cc2)s1					130 nM	
O=c1ccc2ccc(O)cc2o1 [UMBELLIFERONE]						intrinsic clearance [9]: 140 µL/min/mg; intrinsic clearance [12]: 280 µL/min/mg
Cc1ccccc1N(C)C(=O)c1ccc(-c2ccc(O)c(F)c2)o1		10 nM	11 nM	85		
Cc1ccc(F)cc1N(C)C(=O)c1ccc(-c2ccc(O)cc2)o1	2.2 µM	12 nM	41 nM	54		
Cc1cc(F)ccc1N(C)C(=O)c1ccc(-c2ccc(OS(N)(=O)=O)cc2)o1					14 nM	half-life at 1 µM [5]: 44 min; intrinsic clearance [9]: 16 µL/min/mg; IC50 [10]: 15 nM; intrinsic clearance [12]: 150 µL/min/mg; half-life at 1 µM [13]: 4.6 min
Cc1ccncc1N(C)C(=O)c1ccc(-c2ccc(OS(N)(=O)=O)cc2)o1					820 nM	
Cc1cccnc1N(C)C(=O)c1ccc(-c2ccc(OS(N)(=O)=O)cc2)o1					1100 nM	
Cc1ccncc1N(C)C(=O)c1ccc(-c2ccc(O)cc2)o1	> 20 µM	64 nM	260 nM	> 77		
Cc1ccccc1N(C)C(=O)c1ccc(-c2cccc(OS(N)(=O)=O)c2)o1					690 nM	
Cc1ccccc1N(C)C(=O)c1coc(-c2ccc(O)cc2)n1	> 10 µM	110 nM	250 nM	> 40		
Cc1cc(-c2ccc(C(=O)N(C)c3ccccc3C)o2)ccc1OS(N)(=O)=O					570 nM	
Cc1c(F)cccc1N(C)C(=O)c1ccc(-c2ccc(O)cc2)o1	3.9 µM	50 nM	170 nM	23		
Cc1ncccc1N(C)C(=O)c1ccc(-c2ccc(O)cc2)o1	> 30 µM	43 nM	160 nM	> 190		
Cc1ccccc1N(C)C(=O)c1ccc(-c2ccc(O)cc2)o1		21 nM		51		inhibition [15]: < 60%; inhibition [16]: 50%

SMILES	IC50 [1]	IC50 [2]	IC50 [3]	Ratio IC50 [4]	IC50 [7]	further results
Cc1cccnc1N(C)C(=O)c1ccc(-c2ccc(O)cc2)o1	> 10 µM	1100 nM	3300 nM	> 3		
Cc1ccccc1N(C)C(=O)c1csc(-c2ccc(OS(N)(=O)=O)cc2)n1					63 nM	half-life at 1 µM [5]: 50 min; intrinsic clearance [9]: 14 µL/min/mg; IC50 [10]: 60 nM; intrinsic clearance [12]: 46 µL/min/mg; half-life at 1 µM [13]: 15 min
Cc1ccccc1N(C)C(=O)c1ccc(-c2ccccc2O)o1	> 10 µM	1900 nM	1900 nM	> 5.2		
Cc1ccccc1N(C)C(=O)c1ccc(-c2ccc(OS(N)(=O)=O)cc2F)o1					12 nM	half-life at 1 µM [5]: 51 min; intrinsic clearance [9]: 14 µL/min/mg; IC50 [10]: 16 nM; intrinsic clearance [12]: 38 µL/min/mg; half-life at 1 µM [13]: 23 min
Cc1ccccc1N(C)C(=O)c1ccc(-c2ccc(OS(N)(=O)=O)cc2Cl)o1					27 nM	half-life at 1 µM [5]: 39 min; inhibition at 48 h, 20 µM [6]: 11.7%; intrinsic clearance [9]: 18 µL/min/mg; IC50 [10]: 29 nM; intrinsic clearance [12]: 39 µL/min/mg; half-life at 1 µM [13]: 20 min
Cc1ccccc1N(C)C(=O)c1ccc(-c2ccc(OS(N)(=O)=O)c(Cl)c2)o1					25 nM	half-life at 1 µM [5]: 48 min; inhibition at 48 h, 20 µM [6]: 55%; intrinsic clearance [9]: 15 µL/min/mg; IC50 [10]: 27 nM; intrinsic clearance [12]: 24 µL/min/mg; half-life at 1 µM [13]: 31 min
Cc1ccccc1N(C)C(=O)c1nnc(-c2ccc(OS(N)(=O)=O)cc2)o1					1100 nM	
NS(=O)(=O)Oc1ccc2c3c(c(=O)oc2c1)CCCCC3 [IROSUSTAT]						half-life at 1 µM [13]: 3 min
Cc1ccccc1N(C)C(=O)c1ccc(-c2ccc(OS(N)(=O)=O)c(F)c2)o1					17 nM	half-life at 1 µM [5]: 43 min; intrinsic clearance [9]: 16 µL/min/mg; IC50 [10]: 17 nM; intrinsic clearance [12]: 140 µL/min/mg; half-life at 1 µM [13]: 6.1 min
Cc1cc(F)ccc1N(C)C(=O)c1ccc(-c2ccc(O)cc2)o1	1.7 µM	7.6 nM	23 nM	74		
Cc1cc(-c2ccc(C(=O)N(C)c3ccccc3C)o2)ccc1O		8.6 nM		150		
Cc1ccccc1N(C)C(=O)c1ccc(-c2ccc(O)cc2F)o1		10 nM		42		
Cc1ccccc1N(C)C(=O)c1coc(-c2ccc(OS(N)(=O)=O)cc2)n1					60 nM	half-life at 1 µM [5]: 180 min; intrinsic clearance [9]: 3.9 µL/min/mg; IC50 [10]: 68 nM; intrinsic clearance [12]: 15 µL/min/mg; half-life at 1 µM [13]: 47 min
Cc1ccccc1N(C)C(=O)c1ccc(-c2cccc(O)c2)o1	2.8 µM	29 nM	150 nM	19		
Cc1ncccc1N(C)C(=O)c1ccc(-c2ccc(OS(N)(=O)=O)cc2)o1					270 nM	
Cc1cccc(F)c1N(C)C(=O)c1ccc(-c2ccc(O)cc2)o1	3.2 µM	120 nM	310 nM	10		
Cc1ccc(F)cc1N(C)C(=O)c1ccc(-c2ccc(OS(N)(=O)=O)cc2)o1					40 nM	half-life at 1 µM [5]: 34 min; intrinsic clearance [9]: 21 µL/min/mg; intrinsic clearance [12]: 180 µL/min/mg; half-life at 1 µM [13]: 3.9 min
Cc1ccccc1N(C)C(=O)c1ccc(-c2ccc(O)c(Cl)c2)o1		52 nM		74		inhibition at 48 h, 20 µM [6]: 55%
Cc1ccccc1N(C)C(=O)c1ccc(-c2ccc(O)cc2Cl)o1		14 nM		13		
